Data published in patent publication US20220168331A1, “PRR-Activating and MicroRNA-Inhibiting Molecules and Methods of Using Same” (Duke University, priority 2019, published 2022).
Entries after “also recorded” stand apart in the source; their conditions may differ. {PPP} = triphosphate

Experiments:
Mouse macrophage cells = assay: PRR tolerance: IFN-β production by pretreated macrophages after secondary treatment; format: cell-based; conditions: for IFN-β production after secondary treatment, cells pretreated with the substance versus control: pretreatment overnight, then cytoplasmic PRR agonists, FIG. 9B; for IFN-β production, cells pre-treated with mixture of 1-MT and CH223191 versus DMSO: substance given as mixture of IDO inhibitor and AHR inhibitor, FIG. 9
Experimental: (§1) In addition to prior activation of MDA5, prior activation of TLR4, RIG-I, and STING induced self- and cross-tolerance of same and different PRRs.
(§2) Mouse BM-DCs were treated with pIC/DF complex (cytoplasmic MDA5), ICR4/DF complex (cytoplasmic RIG-I), 2′3′-cGAMP (cytoplasmic STING), or transfection agent DF alone (FIG. 9A). Mouse macrophage cells were treated with dH2O (control), LPS (surface TLR4), or HMGB1 (surface TLR4), followed by treatment with DMSO (control) or mixture of CH223191 (AHR inhibitor) and 1-MT (IDO inhibitor) (FIG. 9B). After overnight incubation, the cells were replenished with fresh culture media and treated with indicated cytoplasmic PRR agonists. Levels of IFN-β production were measured using ELISA. □ P<0.05.

[1] = tested on: B16-F10 mouse melanoma cells; assay: IFN-β production (ELISA) by B16-F10 cells; format: cell-based; conditions: for IFN-β production compared to ICR2 and ICR2AS conjugated with seed mutant anti-miR-21: FIG. 6B, n=3
Experimental: (§3) B16-F0 and B16-F10 mouse melanoma cells lines are originated from the same parental cell line but they have different metastatic ability. B16-F0 cell line has no or marginal metastatic ability but B16-F10 cell line has potent metastatic ability. B16-F0 and B16-F10 cells (1×10^4) were treated with RIG-I agonist ICR4-liposome complex (0.6 μg/ml). After overnight incubation, cytotoxicity and IFN-β production by the cells were measured using MTT assay and ELISA, respectively. […] Tumor suppressor proteins, such as programmed cell death 4 (PDCD4) and phosphatase and tensin homolog (PTEN), and pre-miR-21 levels in B16-F0 and B16-F10 cells were measured using real-time qPCR. […] It was hypothisized that miR-21 would interfere with antitumor effects of RIG-I agonists in B16-F10 melanoma cells.
To improve therapeutic effects of RIG-I agonists in B16-F10 cells, we designed and generated a novel RIG-I-activating RNA molecule (named RigantmiR-21) that is composed of a RIG-I-activating RNA structure (ICR4: 5′ppp-containg double stem-loop RNA) and a complementary sequence to mature miR-21. B16-F10 melanoma cells were transfected once or twice with RigantmiR-21, mutant RigantmiR-21, anti-miR-21, or ICR4 (0.6 μg/ml) using liposomal transfection agent DharmaFECT (DF). The expression of miR-21 target genes was determined using qPCR. IFN-β production was determined using ELISA. […] Anti-miR-21, ICR4, and RigantmiR-21 RNAs were complexed with in vivo transfection agent jet-PEI. Jet-PEI alone or RNA-jet-PEI complexes (25 μg) were injected thrice intratumorally into B16-F10 melanoma-bearing immunocompetent mice. (n=6).
Additionally, conjugation of anti-miR-21 improved the ability of other types of RIG-I agonists, such as ICR2 and ICR2AS^4 (sequences shown in FIG. 6A) to induce IFN-β production by cancer cells.

Mouse BM-DCs = assay: PRR tolerance: IFN-β production by pretreated BM-DCs after secondary treatment; format: cell-based; conditions: pretreatment overnight, then cytoplasmic PRR agonists; FIG. 9A
Experimental: as §1, §2

[2] = tested on: PANC-02 mouse pancreatic cancer cell line; assay: PRR tolerance: IFN-β production by pretreated PANC-02 cells after secondary treatment; format: cell-based; conditions: FIG. 8; for IFN-β production after secondary treatment, cells pretreated with the substance versus control: pretreatment at sublethal dose overnight, then pIC/DF complex 0.6 μg/ml; for IFN-β production, cells pre-treated with mixture of 1-MT and CH223191 versus DMSO: substance given as mixture of IDO inhibitor and AHR inhibitor
Experimental: as §1
(§4) In particular, mouse pancreatic cancer cell line PANC-02 and melanoma cell line B16-F10 were pretreated with dH2O, MDA5 agonist (pIC/DF complex), or TLR4 agonist (HMGB1) in the presence of dimethyl sulfoxide (DMSO) (vehicle control), CH223191 (AHR inhibitor), 1-MT (IDO inhibitor), or L-Kyn (AHR activator). After overnight incubation, the cells were replenished with fresh culture media and treated with pIC/DF complex (0.6 μg/ml). One day after second treatment, IFN-β production was measured using ELISA. (n=3).

[3] = tested on: bone marrow-derived dendritic cells (BM-DCs); assay: IFN-β production (ELISA) by BM-DCs after single or repeated pIC/jet-PEI transfection; format: cell-based, mouse; conditions: pIC 0.6 μg/ml with jet-PEI, transfected once or twice, one day after each transfection
Experimental: (§5) B16-F0 mouse melanoma cells or bone marrow-derived dendritic cells (BM-DCs) were transfected once (x1) or twice (x2) with a complex of polyI:C (pIC) (0.6 μg/ml) and transfection agent jet-PEI. IFN-β production by the cells one day after each transfection was determined using ELISA.

[4] = tested on: B16-F10 melanoma-bearing mice; assay: Anticancer response (survival) after single or multiple intratumoral pIC/jet-PEI injections; format: in vivo, mouse; conditions: pIC/jet-PEI complex 25 μg intratumorally once or thrice
[5] = tested on: B16-F0 mouse melanoma cells; assay: IFN-β production (ELISA) by B16-F0 cells; format: cell-based; conditions: for IFN-β production after first and second transfection: 12.5 nM, DharmaFECT, one day after first and second transfection
Experimental: as §3
B16-F0 mouse melanoma cells were transfected with ICR4, RigantmiR-21, mutant RigantmiR-21, or anti-miR-21 at 12.5 nM using DharmaFECT (DF). After overnight incubation, the cells were replenished with fresh culture media, followed by another transfection with the same dose of RNAs. One day after the first and second transfection, IFN-β production by these cells were determined using ELSIA.
as §5

[6] = tested on: B16-F10 melanoma cell line; assay: PRR tolerance: IFN-β production by pretreated B16-F10 cells after secondary treatment; format: cell-based, mouse; conditions: FIG. 8; for IFN-β production after secondary treatment, cells pretreated with the substance versus control: pretreatment at sublethal dose overnight, then pIC/DF complex 0.6 μg/ml; for IFN-β production, cells pre-treated with mixture of 1-MT and CH223191 versus DMSO: substance given as mixture of IDO inhibitor and AHR inhibitor
Experimental: as §1, §4

[7] = tested on: B16-F10 mouse melanoma cells; assay: Cytotoxicity (MTT assay) in B16-F10 cells; format: cell-based; conditions: ICR4-liposome complex 0.6 μg/ml, overnight incubation
Experimental: as §3

[8] = tested on: B16-F0 mouse melanoma cells; assay: Cytotoxicity (MTT assay) in B16-F0 cells; format: cell-based; conditions: for cytotoxic effects after repeated treatments: two transfections at various concentrations, DharmaFECT, MTT three days after first transfection
Experimental: as §3
B16-F0 mouse melanoma cells were transfected with ICR4, RigantmiR-21, mutant RigantmiR-21, or anti-miR-21 at various concentrations using DharmaFECT (DF). After overnight incubation, the cells were replenished with fresh culture media, followed by another transfection with the same dose of RNAs. Three days after the first transfection, cytotoxicity levels were measured using MTT assay.

[9] = tested on: mouse pancreatic, adenocarcinoma, and sarcoma cells; assay: Antitumor activities in mouse pancreatic cancer and sarcoma cells (overall statements); format: cell-based; conditions: FIGS. 4A-4C
Experimental: The antitumor effects of RigantmiR-21 are not limited to melanoma cells. KPC-4839 (mouse pancreatic ductal adenocarcinoma), PANC-02 (mouse pancreatic adenocarcinoma) and mouse sarcoma cell line cells were transfected with indicated ICR4, RigantmiR-21, mutant RigantmiR-21, or anti-miR-21 (0.6 μg/ml) using DharmaFECT (DF). After overnight incubation, IFN-β production by these cells was determined using ELSIA. (n=3). As shown in FIGS. 4A-4C, RigantmiR-21 treatments induced cell death and IFN-β production by mouse pancreatic, adenocarcinoma, and sarcoma cells that are also resistant to RIG-I agonist ICR4.

[10] = tested on: Human and murine cancer cell lines and human normal cells; assay: Cytotoxicity (MTT assay) in cancer cell lines and normal cells; format: cell-based; conditions: transfected 0.8 mg/ml, 72 h after treatment, FIG. 2
Experimental: Human and murine cancer cell lines and human normal cells in 96-well plate (7000 cells/well) were transfected with RIG-I agonist 5′ppp ssRNA ICR4 ([…]). Cells were harvested 72 h after treatment and analyzed for cytotoxicity using MTT assay. N=3. *, P<0.05.

[11] = tested on: 4T1 mouse breast cancer cells, B16-F10 mouse melanoma cells, 403688 mouse sarcoma cells, and WM266.4 human melanoma cells; assay: IFN-β production (ELISA) by different cancer cells after first and second transfection with RIG-I agonists; format: cell-based; conditions: DharmaFECT, one day after first and second transfection; FIG. 11
Experimental: 4T1 mouse breast cancer cells, B16-F10 mouse melanoma cells, 403688 mouse sarcoma cells, and WM266.4 human melanoma cells were transfected with indicated RIG-I agonists using liposomal transfection agent DharmaFECT (DF). After overnight incubation, the cells was replenished with fresh culture media, followed by another transfection with the same RIG-I agonists. One day after first and second transfection IFN-β production by these cells were determined using ELSIA.

[12] = ICR4-liposome complex 0.6 μg/ml, overnight incubation, ELISA

lipopolysaccharide [LPS]
IFN-β production after secondary treatment, cells pretreated with the substance versus control (Mouse macrophage cells): significantly decreased

ICR2AS-anti-miR-21: RIG-I agonist ICR2AS conjugated with anti-miR-21; SEQ ID NO: 9 (GGAUGCUGUCAGGUACCGCAUCCUCAACAUCAGUCUGAUAAGCUA; listed as RNA, further chemistry not given here)
IFN-β production compared to ICR2 and ICR2AS conjugated with seed mutant anti-miR-21 [1]: increased induction

Nc1nc2c(ncn2[C@@H]2O[C@@H]3COP(=O)(O)O[C@H]4[C@@H](O)[C@H](n5cnc6c(N)ncnc65)O[C@@H]4COP(=O)(O)O[C@@H]2[C@@H]3O)c(=O)[nH]1 [2′3′-cGAMP]
IFN-β production after secondary treatment, cells pretreated with the substance versus control (Mouse BM-DCs): significantly decreased

polyinosinic-polycytidylic acid [polyI:C]
IFN-β production after secondary treatment, cells pretreated with the substance versus control [2]: significantly decreased
IFN-β production after secondary treatment, cells pretreated with the substance versus control (Mouse BM-DCs): significantly decreased
IFN-β production after retreatment [3]: reduced
anticancer responses (survival), multiple treatments compared to single treatment [4]: did not significantly enhance
IFN-β production after retreatment ([5]; pIC 0.6 μg/ml with jet-PEI, transfected once or twice, one day after each transfection): reduced
IFN-β production after secondary treatment, cells pretreated with the substance versus control [6]: significantly decreased

ICR4: immunogenic cell-killing RNA RIG-I agonist, 5′ppp-containing double stem-loop ssRNA; SEQ ID NO: 1 (GGAUGCGGUACCUGACAGCAUCCUAAACUCAUGGUCCAUGUUUGUCCAUGGACCA; RNA, 5' {PPP}, backbone not given here; double stem-loop single-stranded RNA) [reference compound]
cytotoxicity (cell death) [7]: underwent cell death and IFN-β production
IFN-β production after secondary treatment, cells pretreated with the substance versus control (Mouse BM-DCs): significantly decreased
sensitivity to antitumor effects, B16-F0 cell line compared with B16-F10 cell line ([8]; 0.6 μg/ml, overnight, FIGS. 1A and 1B): much more sensitive
cytotoxicity (cell death) ([8]; ICR4-liposome complex 0.6 μg/ml, overnight incubation, MTT assay): underwent cell death and IFN-β production
cytotoxic effects after repeated treatments [8]: gradually augmented
IFN-β production [1, 12]: underwent cell death and IFN-β production
IFN-β production after first and second transfection ([5]; ELISA): significantly reduced and not
IFN-β production [5, 12]: underwent cell death and IFN-β production
response of the cells to the RIG-I agonist (resistance) [9]: resistant
% cytotoxicity, cancer versus normal cells [10]: differentially sensitive; also recorded: Differential sensitivity

Cn1cc(C[C@H](N)C(=O)O)c2ccccc21 [1-MT, 1-methyl tryptophan]
IFN-β production, cells pre-treated with mixture of 1-MT and CH223191 versus DMSO [2]: significantly increased
IFN-β production, cells pre-treated with mixture of 1-MT and CH223191 versus DMSO (Mouse macrophage cells): significantly increased
IFN-β production, cells pre-treated with mixture of 1-MT and CH223191 versus DMSO [6]: significantly increased

ICR2-anti-miR-21: RIG-I agonist ICR2 conjugated with anti-miR-21; SEQ ID NO: 7 (GGAUGCGGUACCUGACAGCAUCCUCAACAUCAGUCUGAUAAGCUA; listed as RNA, further chemistry not given here)
IFN-β production compared to ICR2 and ICR2AS conjugated with seed mutant anti-miR-21 [1]: increased induction

Cc1ccccc1N=Nc1ccc(NC(=O)c2ccnn2C)c(C)c1 [CH223191]
IFN-β production, cells pre-treated with mixture of 1-MT and CH223191 versus DMSO [2]: significantly increased
IFN-β production, cells pre-treated with mixture of 1-MT and CH223191 versus DMSO (Mouse macrophage cells): significantly increased
IFN-β production, cells pre-treated with mixture of 1-MT and CH223191 versus DMSO [6]: significantly increased

Nc1ccccc1C(=O)CC(N)C(=O)O (stereo not shown) [Kyn, kynurenine]
IFN-β production after secondary treatment, cells pretreated with the substance versus control [2]: significantly decreased
IFN-β production after secondary treatment, cells pretreated with the substance versus control [6]: significantly decreased

B1: mutant RigantmiR-21: composed of ICR4 and a non-complementary sequence to miR-21; SEQ ID NO: 3 (nucleic acid)
chain: GGAUGCGGUACCUGACAGCAUCUUGAAAUAAGGACUGAUGCUCAACAUCAGUCUGACACUCCA
modifications: chemistry not fully specified
cytotoxic effects after repeated treatments [8]: gradually augmented
IFN-β production after first and second transfection ([5]; ELISA): significantly reduced

B2: RigantmiR-146a: nucleic acid molecule comprising a RIG-I agonist sequence and a miR-146a antagonist sequence; SEQ ID NO: 4 (nucleic acid)
chain: GGAUGCGGUACCUGACAGCAUCCUCCCCCGCAUUCCAUGGUCAACCCAUGGAAUUCAGUUCUCA
modifications: listed as RNA, chemistry not given here
IFN-β production by different cancer cells [11]: differentially induce

B3: high mobility group box 1 (protein, UniProt P09429 1-215, looked up)
High mobility group protein B1: MGKGDPKKPRGKMSSYAFFVQTCREEHKKKHPDASVNFSEFSKKCSERWKTMSAKEKGKFEDMAKADKARYEREMKTYIPPKGETKKKFKDPNAPKRPPSAFFLFCSEYRPKIKGEHPGLSIGDVAKKLGEMWNNTAADDKQPYEKKAAKLKEKYEKDIAAYRAKGKPDAAKKGVVKAEKSKKKKEEEEDEEDEEDEEEEEDEEDEDEEEDDDDE
notes: TLR4 agonist protein
IFN-β production after secondary treatment, cells pretreated with the substance versus control [2]: significantly decreased
IFN-β production after secondary treatment, cells pretreated with the substance versus control (Mouse macrophage cells): significantly decreased
IFN-β production after secondary treatment, cells pretreated with the substance versus control [6]: significantly decreased
